Laboratory results taken from the supplement of paper PMC10307832.

Columns and labels:
Assay in all cases: relative viability (nuclei count vs DMSO), 5 days (fraction); higher = more cells survive
Quizartinib = compound: CC(C)(C)c1cc(NC(=O)Nc2ccc(-c3cn4c(n3)sc3cc(OCCN5CCOCC5)ccc34)cc2)no1 [Quizartinib]
In short: (§1)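 A plate was accepted only when its control CV was below 25% and the cells had doubled at least once. Viability is defined from nuclear counts as treated wells divided by vehicle wells, with the median taken across plates. That median covers lung cancer cell lines grown in 1536-well plates, dosed by pinning at five √10-spaced library-drug concentrations, and counted in MetaXpress from 4× Hoechst images after 5 days.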

YM155 = compound: COCC[n+]1c2c(n(Cc3cnccn3)c1C)C(=O)c1ccccc1C2=O [YM155]
In short: as §1

Quizartinib + OSI-027 = compound: CC(C)(C)c1cc(NC(=O)Nc2ccc(-c3cn4c(n3)sc3cc(OCCN5CCOCC5)ccc34)cc2)no1 [Quizartinib] + COc1cccc2cc(-c3nc([C@H]4CC[C@H](C(=O)O)CC4)n4ncnc(N)c34)[nH]c12 [OSI-027] (partner 0.5 µM)
In short: (§2)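 Lung cancer cell lines in 1536-well plates got either a single drug or a fixed anchor-drug dose together with five library-drug doses (not always all listed) in √10 steps, by pin tool, on the day after seeding. Nuclei were counted after 5 days, and relative viability is the treated-to-vehicle ratio of nuclei counts. Values are medians of duplicate plates.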

YM155 + Pemetrexed = compound: COCC[n+]1c2c(n(Cc3cnccn3)c1C)C(=O)c1ccccc1C2=O [YM155] + Nc1nc2[nH]cc(CCc3ccc(C(=O)N[C@@H](CCC(=O)O)C(=O)O)cc3)c2c(=O)[nH]1 [Pemetrexed] (partner 0.2 µM)
In short: as §2

| Cell Line | relative viability (Quizartinib; 0.001 µM) | relative viability (Quizartinib; 0.003162 µM) | relative viability (Quizartinib; 0.01 µM) | relative viability (Quizartinib; 0.03162 µM) | relative viability (Quizartinib; 0.1 µM) | relative viability (YM155; 0.002 µM) | relative viability (YM155; 0.006325 µM) | relative viability (YM155; 0.02 µM) | relative viability (YM155; 0.06325 µM) | relative viability (Quizartinib + OSI-027; first compound 0.003162 µM) | relative viability (Quizartinib + OSI-027; first compound 0.01 µM) | relative viability (Quizartinib + OSI-027; first compound 0.1 µM) | relative viability (YM155 + Pemetrexed; first compound 0.002 µM) | relative viability (YM155 + Pemetrexed; first compound 0.006325 µM) | relative viability (YM155 + Pemetrexed; first compound 0.02 µM) | relative viability (YM155 + Pemetrexed; first compound 0.06325 µM) | relative viability (Quizartinib + OSI-027; first compound 0.001 µM) | relative viability (Quizartinib + OSI-027; first compound 0.03162 µM) |
| --- | --- | --- | --- | --- | --- | --- | --- | --- | --- | --- | --- | --- | --- | --- | --- | --- | --- | --- |
| HCC-15 | 0.842 | 1 | 0.978 | 0.957 | 0.963 | 0.928 | 1.11 | 0.975 | 1.02 | 0.71 | 0.583 | 0.644 | 0.239 | 0.229 | 0.23 | 0.242 |  |  |
| NCI-H1915 | 0.877 | 0.925 | 0.865 | 0.998 | 1.02 | 0.888 | 0.994 | 0.997 | 0.817 | 0.642 | 0.562 | 0.606 | 0.481 | 0.494 | 0.439 | 0.458 | 0.602 | 0.683 |
| NCI-H1666 | 0.86 | 1.01 | 1 | 0.845 | 1.02 | 0.932 | 1 | 1.02 | 0.918 | 0.883 | 0.856 | 0.857 | 0.837 | 0.881 | 0.854 | 0.868 | 0.755 | 0.764 |
| NCI-H1651 | 0.88 | 0.885 | 1.06 | 0.924 | 0.988 | 0.929 | 0.992 | 0.974 | 0.998 | 0.584 | 0.637 | 0.742 | 0.598 | 0.599 | 0.6 | 0.615 | 0.672 | 0.632 |
| NCI-H2347 | 0.961 | 1.06 | 1.07 | 0.965 | 1.12 | 0.928 | 0.994 | 1.07 | 0.868 | 0.434 | 0.365 | 0.516 | 0.542 | 0.407 | 0.436 | 0.39 | 0.234 | 0.377 |
| NCI-H2342 | 0.953 | 0.992 | 1.02 | 0.88 | 1.06 | 0.947 | 0.997 | 0.996 | 0.949 | 0.592 | 0.603 | 0.621 | 0.75 | 0.742 | 0.764 | 0.788 | 0.664 | 0.68 |
| NCI-H1944 | 0.938 | 0.918 | 0.889 | 0.918 | 0.944 | 0.957 | 0.889 | 1.02 | 1.03 | 0.476 | 0.327 | 0.387 | 0.74 | 0.559 | 0.587 | 0.641 | 0.407 | 0.395 |
| HCC-366 | 0.978 | 1.04 | 1.06 | 1.04 | 1.02 | 1.05 | 0.993 | 1.01 | 1.06 | 0.866 | 0.796 | 0.747 | 0.161 | 0.187 | 0.158 | 0.165 | 0.705 | 0.831 |
| NCI-H522 | 0.874 | 1.09 | 1.04 | 0.901 | 0.97 | 0.913 | 0.923 | 1.08 | 0.997 | 0.764 | 0.694 | 0.762 | 0.841 | 0.938 | 0.92 | 0.899 | 0.649 | 0.702 |
| NCI-H1734 | 0.924 | 0.959 | 1.03 | 0.943 | 1.01 | 0.995 | 0.956 | 1.01 | 1.1 | 0.543 | 0.636 | 0.611 | 0.375 | 0.404 | 0.399 | 0.452 | 0.522 | 0.555 |
| 201T | 1.01 | 1.01 | 0.987 | 0.98 | 0.934 | 0.922 | 1.01 | 1.01 | 0.998 | 0.691 | 0.692 | 0.615 | 0.31 | 0.406 | 0.298 | 0.28 | 0.421 | 0.412 |
| NCI-H1792 | 0.712 | 0.987 | 0.811 | 0.853 | 0.924 | 0.754 | 0.884 | 0.983 | 0.957 | 0.73 | 0.707 | 0.733 | 0.713 | 0.762 | 0.805 | 0.971 |  | 0.589 |
| PC-3 [JPC-3] | 0.978 | 1.02 | 1.04 | 0.852 | 1.08 | 1.01 | 1.07 | 1.1 | 1 | 0.747 | 0.782 | 0.698 | 0.978 | 1.22 | 1.07 | 0.967 | 0.692 | 0.757 |
| NCI-H1563 | 1 | 0.889 | 0.989 | 0.646 | 0.949 | 0.971 | 0.966 | 1.07 | 0.983 | 0.701 | 0.78 | 0.667 | 0.753 | 0.726 | 0.86 | 0.745 | 0.734 | 0.696 |
| HCC-827 | 0.943 | 1.04 | 0.978 | 1.03 | 1.09 | 0.986 | 1.05 | 1.03 | 1.11 | 0.77 | 0.945 | 0.79 | 0.301 | 0.328 | 0.253 | 0.303 | 0.749 | 0.798 |
